Measured values published in patent US11779600B2, “Methods of treating or preventing alzheimer's disease and associated conditions” (CEDARS-SINAI MEDICAL CENTER, priority 2016, dated 2023).

Tested on: iNOS
Experiment: iNOS expression in macrophages by quantitative ICC
Format: cell-based, mouse
Conditions: 24 hours treatment, then fAβ1-42 for 30 min; quantitative ICC (FIG. 16D)
Protocol: To test amyloid-β phagocytosis by macrophage, in repeated experiments monocytes were isolated from the bone marrow of wild-type mice (n=18 mice) and differentiated into macro-phage by 7-day cultivation in complete RPMI-1640 medium (#21870; Life Technologies) with 10% serum and 20 ng/ml MCSF (#315-02; PeproTech). Bone marrow-derived macrophages (MΦBM) were generated from femurs and tibiae cultured for 6-7 days in complete RPMI 1640 medium (Life Technologies) with 10% FBS, 100 U/ml penicillin, 100 μg/ml streptomycin, 2 mM L-glutamine and 20 ng/ml MCSF (PeproTech). Primary cultures of macrophage were then plated at 1.2×10^5 cells per well (3-4 wells for each condition) in 24-well tissue-culture plates on glass cover-slips overnight. […] The fluorescent signal and its total area were determined and quantified by the conversion of individual images to greyscale and standardizing to baseline using histogram-based thresholds with NIH ImageJ software. […]
The expression of inducible nitric oxide synthase (iNOS), a hallmark of the proinflammatory M1 macrophage phenotype, in different treatment groups was assessed next (FIG. 16C-16D). […] Quantitative ICC assays confirmed a significant ˜1.3-fold increase in iNOS expression by minocycline-treated macrophages, and a substantial 48% reduction in Aβ^1-42 phagocytosis. […]

glatiramer acetate [GA]
reduction of iNOS production: 28%
